# How the values were obtained:
# smooth muscle cells = assay: Histopathological observation of the thickened intima after injury of the blood vessel; assay type: in vivo; conditions: histopathologically observed; model and dose not stated
# intimal thickening [1] = assay: Inhibiting activity on intimal thickening in a model for vascular endothelial injury in WHHL rabbits (balloon catheter injury of right common carotid artery); assay type: in vivo, WHHL strain male rabbits; conditions: for Level of intimal thickening I/M: 4 weeks after endothelium injury, Means ± S.E., control 1.00±0.23
# Excerpt: (§1) As test animals were used a group of 4 homozygous hereditary hyperlipemic WHHL strain male rabbits of 2 months (available from Kitayama RABES K.K.) A balloon catheter for removing arterial embolus (Fogarty catheter, E-060-2F, available from Baxter Co., Inc.) was inserted into the right common carotid artery via the right external carotid artery of the rabbits under anesthesia with pentobarbital. The right common carotid artery was abraded three times with the balloon swollen (a balloon pressure of 0.5-1.0 atm) to produce a model for the injured vascular endothelium. The drug was administered for 4 weeks after the endothelium injury, and then the artery was excised and fixed with 10% neutral buffered formalin to prepare a slice of the arterial ring tissue. Elastic fiber-stained tissue preparations were prepared by Elastic Van Gieson (EVG) staining. Areas of the intima (I) and of the medium (M) were measured by means of an image analysis system (Adobe Photoshop, Unitimage for the Apple Macintosh) and a ratio of both values (I/M) was calculated to determine a level of intimal thickening. A total blood cholesterol level was measured according to an enzyme method (Autosera CHO-2, Daiichi Kagaku Yakuhin K.K.) using an autoanalyzer (Hitachi 7150 type).
# (§2) The drug was given in admixture with a rabbit feed RC-4 (available from Oriental Kobo K.K.) at the concentrations of 0.0003% and of 0.003%, and then a dose was calculated from the amount of feed ingested and the body weight.
# [2] = Total blood cholesterol level by enzyme method in the WHHL rabbit endothelial injury model; assay type: in vivo, WHHL strain male rabbits; conditions: WHHL rabbits, 4 weeks after endothelium injury, Means ± S.E., control 841±44
# Excerpt: as §1, §2
# intimal thickening [3] = assay: Inhibiting activity on intimal thickening in a model for vascular endothelial injury in normal rabbits (balloon catheter injury of right common carotid artery); assay type: in vivo, NZW strain male rabbits; conditions: for Level of intimal thickening I/M: 1 week before and 2 weeks after endothelium injury, Means ± S.E., control 0.251±0.030
# Method: as §1, with “of 5 NZW” for “of 4 homozygous hereditary hyperlipemic WHHL”, “K.K.) After a drug was administered to rabbits for 1 week, a” for “K.K.) A”, “for 2” for “for 4”, “thickening.” for “thickening. A total blood cholesterol level was measured according to an enzyme method (Autosera CHO-2, Daiichi Kagaku Yakuhin K.K.) using an autoanalyzer (Hitachi 7150 type).”
# The drug was given in admixture with a rabbit feed RC-4 (available from Oriental Kobo K.K.) at the concentration of 0.0003% and a dose was calculated from the amount of feed ingested and the body weight.
structure (smiles),measurement,setting,value
CCCCCCCCCCCCCCSCC(=O)Nc1c(C(C)C)cccc1C(C)C [Compound of the invention],number of smooth muscle cells during the proliferation period in the thickened intima,smooth muscle cells,decrease the number of smooth muscle cells
same,Level of intimal thickening I/M,intimal thickening [1]; 0.2 mg/kg (0.0003% in feed),0.45±0.19
same,Level of intimal thickening I/M,intimal thickening [1]; 2.0 mg/kg (0.003% in feed),0.38±0.05
same,inhibition at 0.2 mg/kg,"intimal thickening [1]; Oryctolagus cuniculus, 0.2 mg/kg, from I/M ratio vs control group",55%
same,inhibition at 2 mg/kg,"intimal thickening [1]; Oryctolagus cuniculus, 2.0 mg/kg, from I/M ratio vs control group",62%
same,Total blood cholesterol,[2]; 0.2 mg/kg (0.0003% in feed),861 ± 83 mg/dL
same,Total blood cholesterol,[2]; 2.0 mg/kg (0.003% in feed),907 ± 48 mg/dL
same,Level of intimal thickening I/M,intimal thickening [3]; 0.2 mg/kg (0.0003% in feed),0.126±0.028
same,inhibition at 0.2 mg/kg,"intimal thickening [3]; Oryctolagus cuniculus, feed or water, 0.2 mg/kg (0.0003% in feed), from I/M ratio vs control group",49.8%
"CC(C)(Sc1cc(C(C)(C)C)c(O)c(C(C)(C)C)c1)Sc1cc(C(C)(C)C)c(O)c(C(C)(C)C)c1 [Probucol, probucol, reference compound]",Level of intimal thickening I/M,intimal thickening [1]; 190 mg/kg (0.35% in feed),0.43±0.08
same,inhibition at 190 mg/kg,"intimal thickening [1]; Oryctolagus cuniculus, 190 mg/kg, from I/M ratio vs control group",57%
same,Total blood cholesterol,[2]; 190 mg/kg (0.35% in feed),723 ± 44 mg/dL
"COc1ccc(/C=C/C(=O)Nc2ccccc2C(=O)O)cc1OC [Tranilast, tranilast, reference compound]",Level of intimal thickening I/M,intimal thickening [3]; 100 mg/kg (0.167% in feed),0.184±0.051
same,inhibition at 100 mg/kg,"intimal thickening [3]; Oryctolagus cuniculus, feed or water, 100 mg/kg (0.167% in feed), from I/M ratio vs control group",26.6%

# From EP0983763A1, “PREVENTIVES FOR RECONSTRICTION” (TAISHO PHARMACEUTICAL CO. LTD, priority 1997, dated 1998)
